These results are taken from article PMC6438990 (Cellular and Molecular Gastroenterology and Hepatology, 2019).

In general, IC50 refers to the concentration that inhibits the measured activity by half. High values mean a need for much substance, low ones inhibition by little substance.

This assay deals with T1, SLC26A3 (DRA, down-regulated in adenoma) (Homo sapiens, UniProt P40879).
T1 sequence (P40879 1-764): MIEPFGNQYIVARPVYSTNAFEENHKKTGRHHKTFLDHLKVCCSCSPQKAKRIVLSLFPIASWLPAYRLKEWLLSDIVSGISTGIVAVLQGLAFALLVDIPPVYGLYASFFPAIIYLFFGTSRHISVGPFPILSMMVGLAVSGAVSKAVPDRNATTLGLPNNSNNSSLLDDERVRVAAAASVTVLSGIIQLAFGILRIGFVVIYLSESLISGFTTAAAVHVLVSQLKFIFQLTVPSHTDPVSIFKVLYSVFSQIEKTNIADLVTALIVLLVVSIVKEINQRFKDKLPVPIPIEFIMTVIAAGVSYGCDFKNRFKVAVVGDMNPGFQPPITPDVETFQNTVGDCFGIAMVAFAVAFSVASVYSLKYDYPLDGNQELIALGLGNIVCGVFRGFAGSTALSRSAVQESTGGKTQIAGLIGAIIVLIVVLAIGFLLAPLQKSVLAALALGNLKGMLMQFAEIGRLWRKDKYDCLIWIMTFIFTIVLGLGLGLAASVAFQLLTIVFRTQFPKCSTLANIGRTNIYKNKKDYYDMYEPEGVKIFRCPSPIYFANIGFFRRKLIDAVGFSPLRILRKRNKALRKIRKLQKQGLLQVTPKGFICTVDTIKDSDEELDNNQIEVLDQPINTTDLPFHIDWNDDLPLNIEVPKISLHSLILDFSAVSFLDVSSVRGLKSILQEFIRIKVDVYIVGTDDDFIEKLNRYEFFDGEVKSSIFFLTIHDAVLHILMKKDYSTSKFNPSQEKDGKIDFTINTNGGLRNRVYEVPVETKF
The assay is classed as cell-based.

In the case of `Cc1c(CC(=O)O)c(=O)oc2c(C)c(OCc3cccc(Br)c3)ccc12` [DRAinh-A250], the half-inhibitory concentration (IC50) amounted to 0.12 ± 0.04 µM.
